ChEMBL document CHEMBL1649369, “Novel 4-aryl-pyrido[1,2-c]pyrimidines with dual SSRI and 5-HT(1A) activity. part 3” (Eur J Med Chem, 2011)
Activity calls are given as the source filed them. No cut-off for these calls is given here.

Experiments:
Mus musculus [1] = experiment: Antidepressant activity in Swiss albino mouse assessed as total immobility time at 5 mg/kg, ip administered 30 mins before test measured 6 mins test session after 2 mins habituation period by forced swimming test; assay type: functional, organism-based; design: dose 5 mg/kg
Mus musculus [2] = experiment: Effect on hypothermia in Swiss albino mouse assessed as change in rectal body temperature at 2.5 mg/kg, ip after 30 mins by inducible hypothermia test; assay type: functional, organism-based; design: dose 2.5 mg/kg
Mus musculus [3] = experiment: Effect on hypothermia in Swiss albino mouse assessed as change in rectal body temperature at 2.5 mg/kg, ip after 120 mins by inducible hypothermia test; assay type: functional, organism-based; design: dose 2.5 mg/kg
[4] = target: Sodium-dependent serotonin transporter (Rattus norvegicus, UniProt P31652); experiment: Displacement of [3H]citalopram from SERT in rat cerebral cortex by liquid scintillation counting; assay type: tissue-based
Chain of Sodium-dependent serotonin transporter (P31652 whole entry): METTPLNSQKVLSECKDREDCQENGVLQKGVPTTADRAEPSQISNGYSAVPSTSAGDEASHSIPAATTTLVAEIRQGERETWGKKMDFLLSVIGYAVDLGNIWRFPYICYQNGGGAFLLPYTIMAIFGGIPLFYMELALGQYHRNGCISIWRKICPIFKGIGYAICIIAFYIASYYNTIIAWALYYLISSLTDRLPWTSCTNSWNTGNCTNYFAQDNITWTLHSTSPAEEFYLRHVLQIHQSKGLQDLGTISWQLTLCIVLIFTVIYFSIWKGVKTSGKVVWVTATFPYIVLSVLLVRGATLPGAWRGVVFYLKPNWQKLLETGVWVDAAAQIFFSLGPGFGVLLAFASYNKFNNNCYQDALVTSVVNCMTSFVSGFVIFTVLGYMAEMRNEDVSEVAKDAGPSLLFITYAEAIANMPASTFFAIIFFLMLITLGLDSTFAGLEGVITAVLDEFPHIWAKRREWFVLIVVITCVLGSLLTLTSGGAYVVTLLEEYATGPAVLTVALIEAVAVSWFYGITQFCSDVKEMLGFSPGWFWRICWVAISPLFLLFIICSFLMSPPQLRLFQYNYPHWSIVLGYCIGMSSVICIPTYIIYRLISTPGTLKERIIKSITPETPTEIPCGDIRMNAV

Mus musculus [5] = experiment: Effect on hypothermia in Swiss albino mouse assessed as change in rectal body temperature at 5 mg/kg, ip after 90 mins by inducible hypothermia test; assay type: functional, organism-based; design: dose 5 mg/kg
Mus musculus [6] = experiment: Antidepressant activity in Swiss albino mouse assessed as total immobility time at 2.5 mg/kg, ip administered 30 mins before test measured 6 mins test session after 2 mins habituation period by forced swimming test; assay type: functional, organism-based; design: dose 2.5 mg/kg
Mus musculus [7] = experiment: Effect on hypothermia in Swiss albino mouse assessed as change in rectal body temperature at 5 mg/kg, ip after 60 mins by inducible hypothermia test; assay type: functional, organism-based; design: dose 5 mg/kg
Mus musculus [8] = experiment: Effect on hypothermia in Swiss albino mouse assessed as change in rectal body temperature at 2.5 mg/kg, ip after 90 mins by inducible hypothermia test; assay type: functional, organism-based; design: dose 2.5 mg/kg
Mus musculus [9] = experiment: Effect on hypothermia in Swiss albino mouse assessed as change in rectal body temperature at 5 mg/kg, ip after 120 mins by inducible hypothermia test; assay type: functional, organism-based; design: dose 5 mg/kg
Mus musculus [10] = experiment: Effect on hypothermia in Swiss albino mouse assessed as change in rectal body temperature at 2.5 mg/kg, ip after 60 mins by inducible hypothermia test; assay type: functional, organism-based; design: dose 2.5 mg/kg
Mus musculus [11] = experiment: Effect on hypothermia in Swiss albino mouse assessed as change in rectal body temperature at 5 mg/kg, ip dosed 15 mins after 0.1 mg/kg, sc WAY 100635 challenge measured after 60 mins by inducible hypothermia test; assay type: functional, organism-based
Mus musculus [12] = experiment: Effect on hypothermia in Swiss albino mouse assessed as change in rectal body temperature at 5 mg/kg, ip dosed 15 mins after 0.1 mg/kg, sc WAY 100635 challenge measured after 30 mins by inducible hypothermia test; assay type: functional, organism-based
[13] = target: T1, 5-hydroxytryptamine receptor 1A (Rattus norvegicus, UniProt P19327); experiment: Displacement of [3H]8-OH-DPAT from 5-HT1A receptor in rat hippocampus; assay type: tissue-based
T1 sequence (P19327 whole entry): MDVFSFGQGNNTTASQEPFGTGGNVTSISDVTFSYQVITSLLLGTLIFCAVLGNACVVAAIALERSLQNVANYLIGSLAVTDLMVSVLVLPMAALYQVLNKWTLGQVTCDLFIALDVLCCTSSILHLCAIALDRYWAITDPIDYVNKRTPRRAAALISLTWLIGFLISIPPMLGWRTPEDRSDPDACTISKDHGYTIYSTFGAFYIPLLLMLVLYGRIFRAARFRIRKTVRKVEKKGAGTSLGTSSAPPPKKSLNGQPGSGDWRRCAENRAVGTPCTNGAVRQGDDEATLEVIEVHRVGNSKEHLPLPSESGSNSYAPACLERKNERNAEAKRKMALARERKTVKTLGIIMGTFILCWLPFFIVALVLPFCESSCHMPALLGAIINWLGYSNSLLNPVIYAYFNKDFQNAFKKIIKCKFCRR

Mus musculus [14] = experiment: Effect on hypothermia in Swiss albino mouse assessed as change in rectal body temperature at 5 mg/kg, ip after 30 mins by inducible hypothermia test; assay type: functional, organism-based; design: dose 5 mg/kg
Mus musculus [15] = experiment: Effect on hypothermia in Swiss albino mouse assessed as change in rectal body temperature at 10 mg/kg, ip after 60 mins by inducible hypothermia test; assay type: functional, organism-based; design: dose 10 mg/kg
Mus musculus [16] = experiment: Effect on hypothermia in Swiss albino mouse assessed as change in rectal body temperature at 10 mg/kg, ip after 90 mins by inducible hypothermia test; assay type: functional, organism-based; design: dose 10 mg/kg
Mus musculus [17] = experiment: Effect on hypothermia in Swiss albino mouse assessed as change in rectal body temperature at 20 mg/kg, ip after 90 mins by inducible hypothermia test; assay type: functional, organism-based; design: dose 20 mg/kg
Mus musculus [18] = experiment: Effect on hypothermia in Swiss albino mouse assessed as change in rectal body temperature at 20 mg/kg, ip after 120 mins by inducible hypothermia test; assay type: functional, organism-based; design: dose 20 mg/kg
Mus musculus [19] = experiment: Effect on hypothermia in Swiss albino mouse assessed as change in rectal body temperature at 10 mg/kg, ip after 120 mins by inducible hypothermia test; assay type: functional, organism-based; design: dose 10 mg/kg
Mus musculus [20] = experiment: Effect on hypothermia in Swiss albino mouse assessed as change in rectal body temperature at 10 mg/kg, ip after 30 mins by inducible hypothermia test; assay type: functional, organism-based; design: dose 10 mg/kg
Mus musculus [21] = experiment: Effect on hypothermia in Swiss albino mouse assessed as change in rectal body temperature at 20 mg/kg, ip after 60 mins by inducible hypothermia test; assay type: functional, organism-based; design: dose 20 mg/kg
Mus musculus [22] = experiment: Effect on hypothermia in Swiss albino mouse assessed as change in rectal body temperature at 20 mg/kg, ip after 30 mins by inducible hypothermia test; assay type: functional, organism-based; design: dose 20 mg/kg
Mus musculus [23] = experiment: Effect on hypothermia in Swiss albino mouse assessed as change in rectal body temperature at 20 mg/kg, ip dosed 15 mins after 0.1 mg/kg, sc WAY 100635 challenge measured after 60 mins by inducible hypothermia test; assay type: functional, organism-based
Mus musculus [24] = experiment: Antidepressant activity in Swiss albino mouse assessed as total immobility time at 20 mg/kg, ip administered 30 mins before test measured 6 mins test session after 2 mins habituation period by forced swimming test; assay type: functional, organism-based; design: dose 20 mg/kg
Mus musculus [25] = experiment: Effect on hypothermia in Swiss albino mouse assessed as change in rectal body temperature at 20 mg/kg, ip dosed 15 mins after 0.1 mg/kg, sc WAY 100635 challenge measured after 30 mins by inducible hypothermia test; assay type: functional, organism-based
Mus musculus [26] = experiment: Antidepressant activity in Swiss albino mouse assessed as total immobility time at 10 mg/kg, ip administered 30 mins before test measured 6 mins test session after 2 mins habituation period by forced swimming test; assay type: functional, organism-based; design: dose 10 mg/kg
Mus musculus [27] = species on record: Mus musculus; conditions: Swiss albino, 10 mg/kg
Description: Effect on hypothermia in Swiss albino mouse assessed as change in rectal body temperature at 10 mg/kg, ip dosed 15 mins after 0.1 mg/kg, sc WAY 100635 challenge measured after 30 mins by inducible hypothermia test

Mus musculus [28] = species on record: Mus musculus; conditions: Swiss albino, 10 mg/kg; remark: listed apart in the source
Description: Effect on hypothermia in Swiss albino mouse assessed as change in rectal body temperature at 10 mg/kg, ip dosed 15 mins after 0.1 mg/kg, sc WAY 100635 challenge measured after 60 mins by inducible hypothermia test

Mus musculus [29] = experiment: Reduction of 8-OH-DPAT-induced hypothermia in Swiss albino mouse at 0.1 mg/kg, ip administered 45 mins prior 8-OH-DPAT challenge measured after 30 mins by inducible hypothermia test; assay type: functional, organism-based; design: dose 0.1 mg/kg
Mus musculus [30] = experiment: Reduction of 8-OH-DPAT-induced hypothermia in Swiss albino mouse at 0.1 mg/kg, ip administered 45 mins prior 8-OH-DPAT challenge measured after 45 mins by inducible hypothermia test; assay type: functional, organism-based; design: dose 0.1 mg/kg
Mus musculus [31] = experiment: Reduction of 8-OH-DPAT-induced hypothermia in Swiss albino mouse at 0.1 mg/kg, ip administered 45 mins prior 8-OH-DPAT challenge measured after 60 mins by inducible hypothermia test; assay type: functional, organism-based; design: dose 0.1 mg/kg
Mus musculus [32] = experiment: Effect on hypothermia in Swiss albino mouse assessed as change in rectal body temperature at 0.1 mg/kg, ip after 30 mins by inducible hypothermia test; assay type: functional, organism-based; design: dose 0.1 mg/kg
Mus musculus [33] = experiment: Reduction of 8-OH-DPAT-induced hypothermia in Swiss albino mouse at 0.1 mg/kg, ip administered 45 mins prior 8-OH-DPAT challenge measured after 15 mins by inducible hypothermia test; assay type: functional, organism-based; design: dose 0.1 mg/kg
Mus musculus [34] = experiment: Effect on hypothermia in Swiss albino mouse assessed as change in rectal body temperature at 0.1 mg/kg, ip after 90 mins by inducible hypothermia test; assay type: functional, organism-based; design: dose 0.1 mg/kg
Mus musculus [35] = experiment: Effect on hypothermia in Swiss albino mouse assessed as change in rectal body temperature at 0.1 mg/kg, ip after 60 mins by inducible hypothermia test; assay type: functional, organism-based; design: dose 0.1 mg/kg
Mus musculus [36] = experiment: Effect on hypothermia in Swiss albino mouse assessed as change in rectal body temperature at 0.1 mg/kg, ip after 120 mins by inducible hypothermia test; assay type: functional, organism-based; design: dose 0.1 mg/kg

Structure (SMILES) | Ki [4] | deltaT (Mus musculus [5]) | deltaT (Mus musculus [7]) | deltaT (Mus musculus [9]) | deltaT (Mus musculus [11]) | deltaT (Mus musculus [12]) | Ki [13] | deltaT (Mus musculus [14]) | deltaT (Mus musculus [15]) | deltaT (Mus musculus [16]) | deltaT (Mus musculus [19]) | deltaT (Mus musculus [20]) | other results
O=c1c(-c2ccc(Cl)cc2)c2n(c(=O)n1CCCCN1CCC(c3c[nH]c4ccccc34)CC1)CCCC2 | 44.1 nM | -0.4 °C | -0.5 °C | -0.3 °C | -0.1 °C | -0.2 °C | 48.6 nM | -1 °C | – | – | – | – | Activity (Mus musculus [1]): inactive; deltaT (Mus musculus [2]): -0.3 °C; deltaT (Mus musculus [3]): -0.1 °C; Activity (Mus musculus [6]): inactive; deltaT (Mus musculus [8]): -0.1 °C; deltaT (Mus musculus [10]): -0.4 °C
Cc1ccccc1-c1c2n(c(=O)n(CCCCN3CCC(c4c(C)[nH]c5ccccc45)CC3)c1=O)CCCC2 | 882 nM | – | – | – | – | – | 642 nM | – | – | – | – | – | –
O=c1c(-c2ccccc2Cl)c2n(c(=O)n1CCCCN1CCC(c3c[nH]c4ccccc34)CC1)CCCC2 | 147 nM | -0.2 °C | -0.2 °C | -0.1 °C | – | – | 62.3 nM | -0.5 °C | -0.2 °C | -0.1 °C | 0 °C | -0.7 °C | deltaT (Mus musculus [17]): -0.2 °C; deltaT (Mus musculus [18]): -0.1 °C; deltaT (Mus musculus [21]): -0.6 °C; deltaT (Mus musculus [22]): -1 °C
Cc1ccc(-c2c3n(c(=O)n(CCCCN4CCC(c5c[nH]c6ccccc56)CC4)c2=O)CCCC3)cc1 | 42.4 nM | -0.3 °C | -0.4 °C | -0.2 °C | – | – | 46.2 nM | -0.5 °C | -0.3 °C | -0.2 °C | -0.1 °C | -0.6 °C | deltaT (Mus musculus [23]): -0.2 °C; Activity (Mus musculus [24]): inactive; deltaT (Mus musculus [25]): -0.4 °C; Activity (Mus musculus [26]): inactive; deltaT (Mus musculus [17]): -0.4 °C; deltaT (Mus musculus [18]): -0.3 °C; deltaT (Mus musculus [21]): -0.9 °C; deltaT (Mus musculus [22]): -1.3 °C
Cc1[nH]c2ccccc2c1C1CCN(CCCCn2c(=O)c(-c3ccccc3F)c3n(c2=O)CCCC3)CC1 | 1300 nM | – | – | – | – | – | 303 nM | – | – | – | – | – | –
O=c1c(-c2ccccc2)c2n(c(=O)n1CCCCN1CCC(c3c[nH]c4ccccc34)CC1)CCCC2 | 81.7 nM | -0.2 °C | -0.3 °C | -0.1 °C | – | – | 28.3 nM | -0.7 °C | -0.3 °C | -0.2 °C | -0.1 °C | -1.1 °C | deltaT (Mus musculus [27]): -0.5 °C; deltaT (Mus musculus [28]): -0.2 °C
O=c1c(-c2ccccc2F)c2n(c(=O)n1CCCCN1CCC(c3c[nH]c4ccccc34)CC1)CCCC2 | 68.4 nM | -0.5 °C | -0.8 °C | -0.3 °C | -0.1 °C | -0.2 °C | 41.3 nM | -1.3 °C | – | – | – | – | deltaT (Mus musculus [2]): -0.5 °C; deltaT (Mus musculus [3]): -0.1 °C; deltaT (Mus musculus [8]): -0.1 °C; deltaT (Mus musculus [10]): -0.2 °C
CC(C)NCC(O)COc1cccc2[nH]ccc12 (centres undefined) | – | – | – | – | -0.1 °C | -0.2 °C | – | – | – | – | – | – | deltaT (Mus musculus [29]): -0.1 °C; deltaT (Mus musculus [30]): -0.1 °C; deltaT (Mus musculus [31]): -0.1 °C; deltaT (Mus musculus [32]): -0.2 °C; deltaT (Mus musculus [33]): -0.1 °C; deltaT (Mus musculus [34]): -0.1 °C; deltaT (Mus musculus [35]): -0.1 °C; deltaT (Mus musculus [36]): -0.1 °C
